In ChEMBL document CHEMBL1201862, “PubChem BioAssay data set” (2004):
The source made the active and inactive calls. No stated cut-off is given here; in the data, active = IC50 of 10 µM or less and inactive = more.

Assays:
[1] = molecular target: Neuropeptides B/W receptor type 1 (Homo sapiens, UniProt P48145); experiment: GPR7 antagonist potency, late-stage follow-up, cell-based, fluorescence, dose response, set 5 (AID 588566); assay type: functional
[2] = molecular target: Melanin-concentrating hormone receptor 1 (Homo sapiens, UniProt Q99705); experiment: Late-stage fluorescence-based counterscreen for antagonists of the G-protein coupled receptor 7 (GPR7): cell-based dose response assay to identify antagonists of the melanin-concentrating hormone receptor 1 (MCHR1) Set 5.; assay type: functional
Melanin-concentrating hormone receptor 1, sequence (Q99705 whole entry): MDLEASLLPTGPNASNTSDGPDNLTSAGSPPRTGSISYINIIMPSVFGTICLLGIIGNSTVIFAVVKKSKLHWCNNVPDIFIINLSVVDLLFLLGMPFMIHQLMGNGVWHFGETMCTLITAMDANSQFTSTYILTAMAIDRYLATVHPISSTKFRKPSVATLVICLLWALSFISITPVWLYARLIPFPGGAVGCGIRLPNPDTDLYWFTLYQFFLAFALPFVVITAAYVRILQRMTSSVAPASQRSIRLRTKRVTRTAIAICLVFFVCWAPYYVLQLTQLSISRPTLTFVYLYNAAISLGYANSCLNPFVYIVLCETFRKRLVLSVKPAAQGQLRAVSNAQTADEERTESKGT

Neuropeptides B/W receptor type 1, sequence (P48145 whole entry): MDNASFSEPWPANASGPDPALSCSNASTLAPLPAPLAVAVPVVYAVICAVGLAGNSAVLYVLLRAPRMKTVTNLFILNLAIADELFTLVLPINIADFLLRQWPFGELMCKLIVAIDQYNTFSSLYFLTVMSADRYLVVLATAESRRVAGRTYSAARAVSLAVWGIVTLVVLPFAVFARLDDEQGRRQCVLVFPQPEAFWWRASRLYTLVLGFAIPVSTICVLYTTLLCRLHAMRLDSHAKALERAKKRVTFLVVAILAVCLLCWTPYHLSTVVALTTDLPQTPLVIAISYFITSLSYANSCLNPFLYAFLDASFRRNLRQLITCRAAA

IC50 [1]: 1.45 µM (active)
IC50 [2]: 11.4 µM (inactive)
SMILES: COc1ccc(Oc2c(Cl)cnn(Cc3ccccc3C#N)c2=O)cc1
